Structures can show the parent of a compound that is named as a salt.
target: T1, RET (Homo sapiens, UniProt P07949); assay: Inhibition of RET kinase activity, recombinant RET method (Kinase-Glo); format: biochemical; details: RET 2 μg/ml, poly-EY4 substrate, 20 μM ATP, two hours at 30° C.
T1 construct: purchased Upstate 14-570MG
In short: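 Recombinant RET at 2 μg/ml in 20 mM MOPS/NaOH pH 7.0, 1 mM EDTA, 5% glycerol, 0.01% Brij35, 0.1% 2-mercaptoethanol, 1 mg/ml BSA; compounds 10 nM–30 μM final.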

T1 sequence (P07949 29-1114): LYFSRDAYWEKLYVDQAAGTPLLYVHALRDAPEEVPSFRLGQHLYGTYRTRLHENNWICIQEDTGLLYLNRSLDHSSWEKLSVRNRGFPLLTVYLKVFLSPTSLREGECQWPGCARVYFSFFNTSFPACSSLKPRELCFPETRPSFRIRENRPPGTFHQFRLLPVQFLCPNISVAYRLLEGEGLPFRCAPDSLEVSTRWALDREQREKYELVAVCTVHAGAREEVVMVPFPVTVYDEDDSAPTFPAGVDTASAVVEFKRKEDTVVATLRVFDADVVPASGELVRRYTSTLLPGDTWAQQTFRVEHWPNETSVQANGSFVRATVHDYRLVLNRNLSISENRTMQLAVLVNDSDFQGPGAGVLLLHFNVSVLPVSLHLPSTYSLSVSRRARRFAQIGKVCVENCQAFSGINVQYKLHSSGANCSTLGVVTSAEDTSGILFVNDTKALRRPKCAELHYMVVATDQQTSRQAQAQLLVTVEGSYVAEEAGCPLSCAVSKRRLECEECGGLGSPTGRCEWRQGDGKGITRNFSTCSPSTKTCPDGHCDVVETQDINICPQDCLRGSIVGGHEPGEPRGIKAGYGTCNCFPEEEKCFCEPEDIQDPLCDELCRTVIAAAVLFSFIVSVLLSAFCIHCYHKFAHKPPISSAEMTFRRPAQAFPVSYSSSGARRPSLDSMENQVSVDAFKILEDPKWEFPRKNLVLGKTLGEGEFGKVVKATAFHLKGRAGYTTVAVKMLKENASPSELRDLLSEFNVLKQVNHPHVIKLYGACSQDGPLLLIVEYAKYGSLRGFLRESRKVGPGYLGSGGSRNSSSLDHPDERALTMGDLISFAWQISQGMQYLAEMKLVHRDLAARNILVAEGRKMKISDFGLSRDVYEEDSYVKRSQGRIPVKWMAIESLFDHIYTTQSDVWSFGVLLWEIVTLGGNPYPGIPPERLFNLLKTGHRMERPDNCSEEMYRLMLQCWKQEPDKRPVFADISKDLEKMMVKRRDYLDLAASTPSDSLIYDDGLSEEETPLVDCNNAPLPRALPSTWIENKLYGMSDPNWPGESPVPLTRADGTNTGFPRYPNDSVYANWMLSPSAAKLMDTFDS

SMILES | IC50
CCCOC(=O)c1c[nH]c2c(=O)[nH]c3ccc(S(=O)(=O)N(C)CCC#N)cc3c12 [Compound 126, 8-[(2-Cyano-ethyl)-methyl-sulfamoyl]-4-oxo-4,5-dihydro-3H-pyrrolo[2,3-c]quinoline-1-propyl carboxylate] | 0.1 to 1 µM
CCCOC(=O)c1c[nH]c2c(=O)[nH]c3ccc(S(=O)(=O)N(CCNC(C)C)C4CC4)cc3c12 [Compound 142, 8-[Cyclopropyl-(2-isopropylamino-ethyl)-sulfamoyl]-4-oxo-4,5-dihydro-3H-pyrrolo[2,3-c]quinoline-1-propyl carboxylate hydrochloride] | 0.1 to 1 µM
CCOC(=O)c1c[nH]c2c(=O)[nH]c3cc(F)ccc3c12 [Compound 215, 7-Fluoro-4-oxo-4,5-dihydro-3H-pyrrolo[2,3-c]quinoline-1-ethyl carboxylate] | 1 to 10 µM
CC(C)(C)OC(=O)N[C@H]1CCN(S(=O)(=O)c2ccc3[nH]c(=O)c4[nH]cc(C(=O)O)c4c3c2)C1 [Compound 165, (S)-8-(3-tert-Butoxycarbonylamino-pyrrolidine-1-sulfonyl)-4-oxo-4,5-dihydro-3H-pyrrolo[2,3-c]quinoline-1-carboxylic acid] | 10 to 100 µM
CN(c1ccc(F)cc1)S(=O)(=O)c1ccc2[nH]c(=O)c3[nH]cc(C(=O)OCCNC(=O)OC(C)(C)C)c3c2c1 [Compound 106, 2-tert-Butoxycarbonylaminoethyl 8-[(4-fluorophenyl)-methyl-sulfamoyl]-4-oxo-4,5-dihydro-3H-pyrrolo[2,3-c]quinoline-1-carboxylate] | 10 to 100 µM
CCCOC(=O)c1c[nH]c2c(=O)[nH]c3cc(F)c(S(=O)(=O)N(C)CCN(C)C)cc3c12 [Compound 184, 8-[(2-Dimethylamino-ethyl)-methyl-sulfamoyl]-7-fluoro-4-oxo-4,5-dihydro-3H-pyrrolo[2,3-c]quinoline-1-propyl carboxylate] | < 0.1 µM
C#CCN(CCN(C)C(=O)OC(C)(C)C)S(=O)(=O)c1ccc2[nH]c(=O)c3[nH]cc(C(=O)OCCC)c3c2c1 [Compound 157, 8-{[2-(tert-Butoxycarbonyl-methyl-amino)-ethyl]-prop-2-ynyl-sulfamoyl}-4-oxo-4,5-dihydro-3H-pyrrolo[2,3-c]quinoline-1-propyl carboxylate] | < 0.1 µM
CCOC(=O)c1c[nH]c2c(=O)[nH]c3ccc(-c4csc(Nc5ccc(Cl)c(Cl)c5)n4)cc3c12 [Compound 273, 8-[2-(3,4-Dichlorophenylamino)-thiazol-4-yl]-4-oxo-4,5-dihydro-3H-pyrrolo[2,3-c]quinoline-1-ethyl carboxylate] | 1 to 10 µM
CCCOC(=O)c1c[nH]c2c(=O)[nH]c3ccc(S(=O)(=O)N(C[C@H](C)NC(=O)OC(C)(C)C)C4CC4)cc3c12 [Compound 152, (S)-8-[(2-tert-Butoxycarbonylamino-propyl)-cyclopropyl-sulfamoyl]-4-oxo-4,5-dihydro-3H-pyrrolo[2,3-c]quinoline 1-propyl carboxylate] | 0.1 to 1 µM
CN(CC(N)=O)S(=O)(=O)c1ccc2[nH]c(=O)c3[nH]cc(C(=O)O)c3c2c1 [Compound 178, 8-(Carbamoylmethyl-methyl-sulfamoyl)-4-oxo-4,5-dihydro-3H-pyrrolo[2,3-c]quinoline-1-carboxylic acid] | 1 to 10 µM
O=C(NCc1ccccc1)c1c[nH]c2c(=O)[nH]c3ccccc3c12 [Compound 83, N-(Benzyl)-4-oxo-4,5-dihydro-3H-pyrrolo[2,3-c]quinoline-1-carboxamide] | 10 to 100 µM
CCCOC(=O)c1c[nH]c2c(=O)[nH]c3ccc(S(=O)(=O)N(CC)[C@H]4CCNC4)cc3c12 [Compound 160, (S)-8-(Ethyl-pyrrolidin-3-yl-sulfamoyl)-4-oxo-4,5-dihydro-3H-pyrrolo[2,3-c]quinoline-1-propyl carboxylate hydrochloride] | < 0.1 µM
O=C(NCC1CCCCC1)c1c[nH]c2c(=O)[nH]c3ccccc3c12 [Compound 82, N-(Cyclohexylmethyl)-4-oxo-4,5-dihydro-3H-pyrrolo[2,3-c]quinoline-1-carboxamide] | 10 to 100 µM
CCCOC(=O)c1c[nH]c2c(=O)[nH]c3ccc(S(=O)(=O)N4CCC(N(C)C(=O)OC(C)(C)C)C4)cc3c12 (stereo not shown) [Compound 169, 8-[3-(tert-Butoxycarbonyl-methyl-amino)-pyrrolidine-1-sulfonyl]-4-oxo-4,5-dihydro-3H-pyrrolo[2,3-c]quinoline-1-propyl carboxylate] | 1 to 10 µM
CS(=O)(=O)c1cccc(-c2ccc3[nH]c(=O)c4[nH]cc(C(=O)OC5CCCC5)c4c3c2)c1 [Compound 256, 8-(3-Methanesulfonyl-phenyl)-4-oxo-4,5-dihydro-3H-pyrrolo[2,3-c]quinoline-1-cyclopentyl carboxylate] | 0.1 to 1 µM
CCCOC(=O)c1c[nH]c2c(=O)[nH]c3ccc(S(=O)(=O)N(CCO)C(C)C)cc3c12 [Compound 173, 8-[(2-Hydroxy-ethyl)isopropyl-sulfamoyl]-4-oxo-4,5-dihydro-3H-pyrrolo[2,3-c]quinoline-1-propyl carboxylate] | < 0.1 µM
C#CCN(C[C@@H]1CCCN1C)S(=O)(=O)c1ccc2[nH]c(=O)c3[nH]cc(C(=O)OCCC)c3c2c1 [Compound 151, (S)-8-[(1-Methyl-pyrrolidin-2-ylmethyl)-prop-2-ynyl-sulfamoyl]-4-oxo-4,5-dihydro-3H-pyrrolo[2,3-c]quinoline-1-propyl carboxylate] | 0.1 to 1 µM

The remaining lines, values ahead:

IC50 | SMILES
0.1 to 1 µM | CCCOC(=O)c1c[nH]c2c(=O)[nH]c3ccc(S(=O)(=O)NC4CC4)cc3c12 [Compound 124, 8-Cyclopropylsulfamoyl-4-oxo-4,5-dihydro-3H-pyrrolo[2,3-c]quinoline-1-propyl carboxylate]
1 to 10 µM | COC(=O)c1c[nH]c2c(=O)[nH]c3ccc(S(=O)(=O)NN4CCCCC4)cc3c12 [Compound 191, 4-Oxo-8-(piperidin-1-ylsulfamoyl)-4,5-dihydro-3H-pyrrolo[2,3-c]quinoline-1-methyl carboxylate]
0.1 to 1 µM | CCOC(=O)c1c[nH]c2c(=O)[nH]c3ccc(-c4ccccc4NS(C)(=O)=O)cc3c12 [Compound 232, 8-(2-Methanesulfonylaminophenyl)-4-oxo-4,5-dihydro-3-pyrrolo[2,3-c]quinoline-1-ethyl carboxylate]
1 to 10 µM | CCOC(=O)c1c[nH]c2c(=O)[nH]c3ccc(NS(=O)(=O)c4cccc(OC)c4)cc3c12 [Compound 51, 8-(3-Methoxy-benzenesulfonylamino)-4-oxo-4,5-dihydro-3H-pyrrolo[2,3-c]quinoline-1-ethyl carboxylate]
< 0.1 µM | CCOC(=O)c1c[nH]c2c(=O)[nH]c3ccc(S(=O)(=O)Nc4cccc(F)c4C)cc3c12 [Compound 16, 8-(3-Fluoro-2-methyl-phenylsulfamoyl)-4-oxo-4,5-dihydro-3H-pyrrolo[2,3-c]quinoline-1-ethyl carboxylate]
0.1 to 1 µM | CCOC(=O)c1c[nH]c2c(=O)[nH]c3ccc(S(=O)(=O)Nc4cc(F)cc(F)c4)cc3c12 [Compound 19, 8-(3,5-Difluorophenylsulfamoyl)-4-oxo-4,5-dihydro-3H-pyrrolo[2,3-c]quinoline-1-ethyl carboxylate]
1 to 10 µM | O=C(OCc1ccccc1)c1c[nH]c2c(=O)[nH]c3ccccc3c12 [Compound 74, 4-Oxo-4,5-dihydro-3H-pyrrolo[2,3-c]quinoline-1-carboxylate benzyl]
1 to 10 µM | CCCOC(=O)c1c[nH]c2c(=O)[nH]c3ccc(S(=O)(=O)N(CCOCc4ccccc4)C4CC4)cc3c12 [Compound 181, 8-[(2-Benzyloxy-ethyl)-cyclopropyl-sulfamoyl]-4-oxo-4,5-dihydro-3H-pyrrolo[2,3-c]quinoline-1-propyl carboxylate]
0.1 to 1 µM | CCOC(=O)c1c[nH]c2c(=O)[nH]c3ccc(S(=O)(=O)N4CCc5ccccc54)cc3c12 [Compound 21, 8-(2,3-Dihydro-indole-1-sulfonyl)-4-oxo-4,5-dihydro-3H-pyrrolo[2,3-c]quinoline-1-ethyl carboxylate]
10 to 100 µM | CCOC(=O)c1c[nH]c2c(=O)[nH]c3ccc(NS(=O)(=O)c4ccc5ccccc5c4)cc3c12 [Compound 54, 8-(Naphthalene-2-sulfonylamino)-4-oxo-4,5-dihydro-3H-pyrrolo[2,3-c]quinoline-1-ethyl carboxylate]
1 to 10 µM | CCOC(=O)c1c[nH]c2c(=O)[nH]c3cc(OC)c(OC)cc3c12 [Compound 72, 7,8-Dimethoxy-4-oxo-4,5-dihydro-3H-pyrrolo[2,3-c]quinoline-1-ethyl carboxylate]
1 to 10 µM | CCOC(=O)c1c[nH]c2c(=O)[nH]c3cc(OC)ccc3c12 [Compound 213, 7-Methoxy-4-oxo-4,5-dihydro-3H-pyrrolo[2,3-c]quinoline-1-ethyl carboxylate]
1 to 10 µM | CCOC(=O)CCNS(=O)(=O)c1ccc2[nH]c(=O)c3[nH]cc(C(=O)OCC)c3c2c1 [Compound 29, 8-(2-Ethoxycarbonyl-ethylsulfamoyl)-4-oxo-4,5-dihydro-3H-pyrrolo[2,3-c]quinoline-1-ethyl carboxylate]
1 to 10 µM | CCOC(=O)c1c[nH]c2c(=O)[nH]c3ccc(-c4csc(C)n4)cc3c12 [Compound 278, 8-(2-Methyl-thiazol-4-yl)-4-oxo-4,5-dihydro-3H-pyrrolo[2,3-c]quinoline-1-ethyl carboxylate]
0.1 to 1 µM | CCOC(=O)c1c[nH]c2c(=O)[nH]c3ccc(S(N)(=O)=O)cc3c12 [Compound 96, 4-Oxo-8-sulfamoyl-4,5-dihydro-3H-pyrrolo[2,3-c]quinoline-1-ethyl carboxylate]
0.1 to 1 µM | CCOC(=O)c1c[nH]c2c(=O)[nH]c3ccc(S(=O)(=O)Nc4ccccc4OC)cc3c12 [Compound 7, 8-(2-Methoxy-phenylsulfamoyl)-4-oxo-4,5-dihydro-3H-pyrrolo[2,3-c]quinoline-1-ethyl carboxylate]
10 to 100 µM | CCOC(=O)c1c[nH]c2c(=O)[nH]c3ccc(F)cc3c12 [Compound 99, 8-Fluoro-4-oxo-4,5-dihydro-3H-pyrrolo[2,3-c]quinoline-1-ethyl carboxylate]
